Data taken from US10130604B2, “Composition and method for treating neurodegenerative disease” (priority 2012, dated 2018).
Where two headings read alike, the source gives them in different places.

Key:
[1] = gut; cited from earlier work
[2] = test system: Y39C-α-synuclein transgenic mice; test: Rotarod test in Y39C-α-synuclein transgenic mice treated with glycerol phenylbutyrate; assay type: in vivo, mouse
Experimental: Transgenic mice were genetically programmed from birth to develop a “Parkinson-Plus” condition by depositing an abnormal form of a protein called Y39C-α-synuclein in neurons of the brain under control of the Thy1 promoter (see Zhou et al., J. Biol. Chem., 2008, 283, 9863-70). […] After 6 weeks of daily treatment, animals were placed on a rotating rod (Rotarod) at different speeds for up to 5 minutes. Animals which could not keep up with the turning rod fell off. The time they were able to stay on the rod was noted. […] These differences were statistically significant at the higher speeds, 21 and 26 rpm. At the highest speed, 33 rpm, all animals fell off the rod after about 50 seconds.

[3] = test system: DJ-1; conditions: N27 cells, two days treatment, Western blot
Experimental: Dopaminergic cells derived from embryonic day 12 rat mesencephalon and immortalized with the SV40 large T antigen designated 1RB3AN27, (N27 cells) were used (37). […] Cells were lysed in a dissociation buffer containing 50 mM Tris-HCl, 10 mM NaCl, 0.1% Triton X-100 plus protease inhibitor cocktail (Roche). […] Protein concentration was determined by the BCA method (Pierce). Fifty μg of protein was separated on 10% SDSPAGE gel and transferred to a nitrocellulose membrane. […] Blots were incubated with HRP-conjugated secondary antibody (1:10,000; Jackson Immune Research), followed by chemiluminescent detection (Perkin Elmer life Sciences) (31,38).

[4] = test system: DJ-1; conditions: C57BL/6 mice, drinking water, two weeks, vs control
Experimental: (§1) Cells were lysed in a dissociation buffer containing 50 mM Tris-HCl, 10 mM NaCl, 0.1% Triton X-100 plus protease inhibitor cocktail (Roche). The mouse brain tissues were dissected and quickly frozen in dry ice. Tissues were thawed on ice and homogenized in dissociation buffer with protease inhibitors (Roche). Protein concentration was determined by the BCA method (Pierce). Fifty μg of protein was separated on 10% SDSPAGE gel and transferred to a nitrocellulose membrane. After blocking nonspecific binding, membranes were incubated with antibodies to DJ-1 (1:5000, Chemicon), α-synuclein (1:3000, Transduction Laboratories), TH (1;2000, PelFreez), and β-actin (1:4000, Sigma). Blots were incubated with HRP-conjugated secondary antibody (1:10,000; Jackson Immune Research), followed by chemiluminescent detection (Perkin Elmer life Sciences) (31,38).
(§2) Adult C57BL/6 mice (4-6 months old) were treated with PB and SB in drinking water for 14 days. The PB and SB were dissolved in water at concentrations of 500, 1000, 1500, and 2000 mg/L. Mice typically drink 4-5 ml of water per day, and their drinking volumes were not affected by the addition of PB or SB. Control animals received water with sodium chloride added to the same molarity as the sodium in the drug-treated animals. […]

[5] = test system: DJ-1; conditions: HEK293 reporter cells, 48 hr treatment
Experimental: Cells were lysed in a dissociation buffer containing 50 mM Tris-HCl, 10 mM NaCl, 0.1% Triton X-100 plus protease inhibitor cocktail (Roche). […] Protein concentration was determined by the BCA method (Pierce). Fifty μg of protein was separated on 10% SDSPAGE gel and transferred to a nitrocellulose membrane. After blocking nonspecific binding, membranes were incubated with antibodies to DJ-1 (1:5000, Chemicon), α-synuclein (1:3000, Transduction Laboratories), TH (1;2000, PelFreez), and β-actin (1:4000, Sigma). Blots were incubated with HRP-conjugated secondary antibody (1:10,000; Jackson Immune Research), followed by chemiluminescent detection (Perkin Elmer life Sciences) (31,38).
The luciferase assay was based on the pGLuc-Basic vector (NEB). The human DJ-1 2 kb promoter area was amplified by PCR using genomic DNA from HEK293 cells. The human DJ-1 promoter was then cloned into the pGLuc-Basic vector, and that reporter vector was transfected into HEK293 cells. G418 (200 μg/ml) was applied to the cultures, and resistant clones were selected and assayed for luciferase activity. […] Culture medium samples (20 μl) were incubated with Gaussia luciferase assay substrate (NEB), and luminescence was measured in a 96-well plate reader (BioTek Synergy HT Multi-Mode microplate reader).

[6] = test system: α-synuclein; conditions: C57BL/6 mice, drinking water, two weeks
Experimental: as §1, §2

[7] = test system: human DJ-1 promoter; test: Human DJ-1 promoter-luciferase reporter assay in HEK293 cells; assay type: cell-based; conditions: 48 hr treatment
Excerpt: The human DJ-1 2 kb promoter area was amplified by PCR using genomic DNA from HEK293 cells. The human DJ-1 promoter was then cloned into the pGLuc-Basic vector, and that reporter vector was transfected into HEK293 cells.

[8] = test system: Y39C α-synuclein transgenic mice; conditions: 1000 mg/L drinking water, 6 and 12 weeks
Experimental: The [MUT] α-synuclein transgenic mice were divided into younger (6-8 months=Young Tg) and older (10-12 months=Old Tg) groups. Each group received PB (1000 mg/L, 5.4 mM) or vehicle (NaCl) in the drinking water for 3 months. Animals were tested for rotarod and water maze performance after 6-weeks and 12-weeks of treatment. Spatial learning was assessed using the Morris water maze. The maze included a circular tank (120 cm in diameter) filled to 10 cm below the edge of the tank with 27° C. water that was made opaque by the addition of non-toxic black ink. A circular escape platform (10 cm in diameter) was located 1 cm below the surface of the water in a constant location in the northwest quadrant of the tank. Mice were first acclimated to the maze during three trial habituation sessions. Each testing session consisted of three consecutive days with four trials per day. The platform was invisible in the pool, and mice were allowed to swim for 60 sec before being returned to the home cage. The latency from all training and testing sessions was collected.

[9] = test system: dopamine neurons; conditions: vs MPTP alone
Experimental: Treatment with PB continued after MPTP injection. […] One week after MPTP lessoning, mouse brain tissues were dissected for Western blot and HPLC analysis. Mouse striatum was frozen in dry ice, sonicated in ice-cold 0.2 m perchloric acid and centrifuged at 15,000 g for 15 min at 4° C. An aliquot (5 μL) of the supernatant solution was analyzed by HPLC equipped with an electrochemical detector (CoulArray system ESA Model 5600; ESA, Boston, Mass., USA), a pump (ESA Model 580) set at 1.5 mL/min, and a reverse-phase C18 column (3 μm, 100 Å 4.6 mm, Waters, Milford, Mass., USA). The mobile phase was composed of 100 mm citric acid, 2% methanol, 1 mm EDTA and 5 mg/L sodium octyl sulfate (pH 3.0).

[10] = test system: N27 cells; conditions: two days pretreatment, then A53T α-synuclein adenovirus two days
[11] = test system: Y39C α-synuclein transgenic mice; conditions: 1000 mg/L drinking water, 6 and 12 weeks; remark: listed apart in the source
Experimental: The [MUT] α-synuclein transgenic mice were divided into younger (6-8 months=Young Tg) and older (10-12 months=Old Tg) groups. Each group received PB (1000 mg/L, 5.4 mM) or vehicle (NaCl) in the drinking water for 3 months. Animals were tested for rotarod and water maze performance after 6-weeks and 12-weeks of treatment. Mice were tested for their ability to run on a 3 cm diameter rotating rod (rotarod) at speeds ranging from 3 to 33 rpm. The protocol consisted of two phases: habituation (Day 1) and rotated training/testing (Days 2 to 5). During habituation on Day 1, the mice were trained to remain on the rotarod at 3 rpm. […] Each test day, the speed was increased, reaching 33 rpm by Day 5. The time the mice spent on the rotarod without falling was recorded for each trial.

[12] = test system: Nrf2; conditions: N27 dopamine neurons
[13] = test system: Vamp2; conditions: A53T human α-synuclein overexpression plus phenylbutyrate
[14] = cited from earlier work
[15] = test system: N27 cells
[16] = test system: N27 cells; conditions: shDJ-1 N27 cells; H2O2 75 or 100 μM, 6-OHDA 60 or 80 μM
[17] = test system: Lamp2
[18] = 1000 mg/L drinking water, Western blot

**Q.** For `O=C(CCCc1ccccc1)OCC(COC(=O)CCCc1ccccc1)OC(=O)CCCc1ccccc1` [glycerol phenylbutyrate, Glycerol phenylbutyrate], which “metabolism of the pro-drug” value [1] is on record?
**A.** metabolized in the gut to produce the active compound phenylbutyrate

**Q.** And the “time able to stay on the rotating rod” value ([2]; 6 weeks daily treatment, vs glycerol, significant at 21 and 26 rpm)?
**A.** able to stay on the rod longer

**Q.** And the “time until animals fell off the rod at the highest speed” value ([2]; 33 rpm, all animals)?
**A.** about 50 seconds

**Q.** Which results are given for `CCCC(=O)[O-].[Na+]` [sodium butyrate]?
**A.** DJ-1 protein levels [3]: 300 % of control; brain DJ-1 levels [4]: significantly increased DJ-1 levels; DJ-1 protein levels [5]: increased; α-synuclein concentrations in brain [6]: not changed; luciferase activity [7]: increased luciferase activity

**Q.** For `O=C([O-])CCCc1ccccc1.[Na+]` [sodium phenylbutyrate], which “water maze performance, Young Tg mice” value [8] is on record?
**A.** did not change water maze performance

**Q.** And the “water maze function, Old Tg mice” value ([8]; vs vehicle)?
**A.** prevented the age-related decline in water maze function

**Q.** What about the “striatal dopamine levels (HPLC)” value ([9]; 1000 mg/L drinking water two weeks before MPTP) of the same compound?
**A.** significantly increased striatal dopamine levels

**Q.** And the “DJ-1 levels in striatum” value [9, 18]?
**A.** significantly increased

**Q.** What about the “tyrosine hydroxylase protein levels in striatum” value [9, 18] of the same compound?
**A.** increased

**Q.** What about the “numbers of TH positive dopamine neurons in the substantia nigra” value ([9]; 1000 mg/L drinking water) of the same compound?
**A.** significantly higher numbers of TH positive dopamine neurons

**Q.** And the “cell viability after A53T mutant α-synuclein expression” value [10]?
**A.** increased cell viability

**Q.** And the “number of cells with α-synuclein aggregates” value [10]?
**A.** reduced the number of cells with α-synuclein aggregates

**Q.** And the “motor function (rotarod), Young Tg mice” value [11]?
**A.** did not change motor function

**Q.** What about the “motor function (rotarod), Old Tg mice” value ([11]; vs vehicle) of the same compound?
**A.** significantly improved motor function

**Q.** And the “increase in Nrf2 mRNA” value [12]?
**A.** 50 fold

**Q.** And the “Vamp2 overexpression, A53T with addition of phenylbutyrate” value [13]?
**A.** 200 fold

**Q.** What about the half-life in vivo [14] of the same compound?
**A.** 50 min

**Q.** And the luciferase activity [7]?
**A.** increased luciferase activity

**Q.** And the “cell viability in naïve N27 cells” value ([15]; H2O2 75 or 100 μM, 6-OHDA 60 or 80 μM)?
**A.** significantly improved cell viability

**Q.** And the cell survival ([15]; cells exposed to H2O2 and A53T, not shown)?
**A.** substantially better

**Q.** And the “neuroprotective effect against H2O2 and 6-OHDA-induced toxicity after DJ-1 knockdown” value [16]?
**A.** effectively abolished the neuroprotective effect

**Q.** And the “increase in Lamp2 gene expression, with A53T” value ([17]; A53T expression plus phenylbutyrate)?
**A.** 400 fold

**Q.** And the “increase in Lamp2 expression” value ([17]; N27 dopamine neurons, drug alone)?
**A.** about 30 fold

**Q.** What about the “increase in Lamp2 expression, pretreatment followed by H2O2” value ([17]; pretreatment 48 hr, then H2O2) of the same compound?
**A.** 200 fold
